For test [1], the target named is MMP-12 (Homo sapiens, UniProt P39900). In words: in vitro inhibitory activity on MMP-12 (proteolysis of FP-1 peptide substrate). As to conditions: FP-1 substrate 10 μM, 20 minutes at room temperature. It counts as biochemical. The procedure: in vitro Evaluation of the Inhibitory Activity of the Compounds of the Invention on MMP-12:
The inhibitory activity of the compounds of formula (I) on metalloprotease-12 is evaluated by testing the capacity of the compounds of the invention to inhibit the proteolysis of a peptide that is an MMP-12 substrate.
The substrate peptide used (fluorigenic peptide-1: FP-1) in the test has the following sequence: Mca-Pro-Leu-Gly-Leu-Dap(Dnp)-Ala-Arg-NH2.
The inhibitory activity of a compound of formula (I) is expressed as the IC50 value, which represents the concentration of inhibitor for which a 50% inhibition of the metalloprotease is observed.
The reaction starts with the sequential addition of 41 μl of FP-1 substrate (final concentration of 10 μM) to a buffer solution of 50 mM of Tris-HCl and 10 mM of CaCl2, and containing 5 mM of hydroxamic acid and 5 μl of the enzyme diluted in a 0.005% Brij-35 buffer solution. The microplates are incubated for 20 minutes at room temperature. The compounds of the invention are tested at concentrations ranging from 0.3 to 30 μM. The measurement of the amount of proteolysis of the peptide substrate is monitored by means of a measurement of absorbance at 405 nm using a microplate spectrophotometer, at room temperature. The IC50 values are calculated from curves in which the percentage of the catalytic activity relative to the control is represented on the […] and the inhibitor concentration is represented on the y-axis.

Test [2] concerns the target MMP-13 (Homo sapiens, UniProt P45452). Briefly: MMP-12 inhibition test adapted to MMP-13. The test is classed as biochemical. As to conditions: test for MMP-12 adapted to MMP-13.
Procedure: The reaction starts with the sequential addition of 41 μl of FP-1 substrate (final concentration of 10 μM) to a buffer solution of 50 mM of Tris-HCl and 10 mM of CaCl2, and containing 5 mM of hydroxamic acid and 5 μl of the enzyme diluted in a 0.005% Brij-35 buffer solution. The microplates are incubated for 20 minutes at room temperature. The compounds of the invention are tested at concentrations ranging from 0.3 to 30 μM. The measurement of the amount of proteolysis of the peptide substrate is monitored by means of a measurement of absorbance at 405 nm using a microplate spectrophotometer, at room temperature. The IC50 values are calculated from curves in which the percentage of the catalytic activity relative to the control is represented on the x-axis and the inhibitor concentration is represented on the y-axis.
The test described above for the inhibition of MMP-12 is adapted and used to determine the capacity of the compounds of formula (I) to inhibit the metalloproteases MMP-1, MMP-2, MMP-3, MMP-7, MMP-9, MMP-13 and MMP-14.

MMP-12, sequence (P39900 106-470): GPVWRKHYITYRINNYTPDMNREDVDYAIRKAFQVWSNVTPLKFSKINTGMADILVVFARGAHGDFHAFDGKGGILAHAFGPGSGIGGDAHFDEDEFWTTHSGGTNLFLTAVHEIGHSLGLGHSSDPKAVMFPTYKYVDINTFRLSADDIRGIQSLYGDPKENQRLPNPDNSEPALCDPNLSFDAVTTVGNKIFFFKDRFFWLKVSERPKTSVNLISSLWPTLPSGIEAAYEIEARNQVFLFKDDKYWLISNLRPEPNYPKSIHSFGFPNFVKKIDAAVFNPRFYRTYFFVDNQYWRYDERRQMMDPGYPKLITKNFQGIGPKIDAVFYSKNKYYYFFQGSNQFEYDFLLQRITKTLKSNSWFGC

The term IC50 denotes the point on the concentration scale where inhibition reaches its midpoint. Low values mean inhibition by little substance, high ones a need for much substance. On to `O=C(O)CC(NC(=O)c1cc(-c2ccc(OC(F)(F)F)cc2)cs1)c1ccccc1` (racemic) [Example 6, {1[(4-Trifluoromethoxyphenyl)thien-2-yl]carboxamido}(phenyl)-propanoic acid], for which the half-inhibitory concentration (IC50) in test [1] was 0.42 µM; in test [2] it was 3.6 µM.

For `O=C(N[C@H](C(=O)O)c1ccccc1)c1cc(-c2ccc(OC(F)(F)F)cc2)cs1` [Example 2], the IC50 in test [1] turned out to be 0.38 µM; in test [2], 4.5 µM.

For `O=C(N[C@@H](C(=O)O)c1ccccc1)c1cc(-c2ccc(OC(F)(F)F)cc2)cs1` [Example 4, (2R)-{[4-(4-Trifluoromethoxyphenyl)thien-2-yl]carboxamido}-(phenyl)acetic acid], the figures for the IC50 in test [1] and in test [2] were 0.47 µM and 5.6 µM, respectively.

Take `O=C(N[C@H](Cc1ccccc1)C(=O)O)c1cc(-c2ccc(OC(F)(F)F)cc2)cs1` [Example 8, (2R)-{[4-(4-Trifluoromethoxyphenyl)thien-2-yl]carboxamido}(phenyl)-propanoic acid]: the figures for the IC50 in test [1] and in test [2] were 0.18 µM and 2.2 µM, respectively.

As to `NC(=O)C[C@@H](NC(=O)c1cc(-c2ccc(OC(F)(F)F)cc2)cs1)c1ccccc1` [Example 9], the IC50 in test [1] is 0.077 µM; in test [2], 0.96 µM.

Consider `O=C(O)C[C@H](Cc1ccccc1)NC(=O)c1cc(-c2ccc(OC(F)(F)F)cc2)cs1` [Example 12, (3S)-3-{[4-(4-Trifluoromethoxyphenyl)thien-2-yl]carboxamido)-4-phenylbutanoic acid], for which the IC50 is 0.53 µM in test [1] and 8.3 µM in test [2].

For `O=C(N[C@H](C(=O)O)c1ccccc1)c1cc(-c2ccc(C3CCCCC3)cc2)cs1` [Example 16, (2S)-{[4-(4-cyclohexylphenyl)thien-2-yl]carboxamido}(phenyl)acetic acid], the IC50 in test [1] was 0.54 µM; in test [2], 6.5 µM.

Take `CC(=O)c1ccc(-c2ccc(-c3csc(C(=O)N[C@H](C(=O)O)c4ccccc4)c3)cc2)cc1` [Example 18, (2S)4-[({4-[4-(4-Acetylphenyl)phenyl]thien-2-yl}carbonyl)amino]-(phenyl)acetic acid]: the IC50 in test [1] was found to be 0.04 µM; in test [2], 0.12 µM.

As to `CC(=O)c1ccc(-c2ccc(-c3csc(C(=O)N[C@H](CC(=O)O)c4ccccc4)c3)cc2)cc1` [Example 20], the figures for the IC50 in test [1] and in test [2] were 0.028 µM and 0.069 µM, respectively.

The values are drawn from patent US20050014816A1, “Thiophene amino acid derivatives, process for preparing them and pharmaceutical compositions containing them” (Pfizer Inc, priority 2003, published 2005).
